Tests used:
Mre11^myc yeast strains = experiment: MMS and CPT sensitivity assay (spotted serial dilutions); type: cell-based, Saccharomyces cerevisiae; settings: ten-fold serial dilutions on YPD; for Sensitivity of mre11-ΔC49 mutant (in words): mre11-ΔC49 strain; for Sensitivity of mre11-ΔIDR mutant (in words): mre11-ΔIDR strain compared with wild type
Experimental: (§1) Following standard protocols, strains were patched on YPG plates, mated and streaked on YPD plates, and selected diploid colonies grown in liquid YPD at 30 °C, 250 rpm, overnight. For meiotic synchronization, diploid cultures grown overnight in YPD were transferred to YPA (1% yeast extract, 2% peptone, 1% potassium acetate) at OD600 0.2 and grown for 12–14 h at 30 °C, 250 rpm. Once the cultures reached OD600 between 1.2–1.6, cells were washed once with prewarmed sterile water and immediately transferred to sporulation medium supplemented with amino acids (320 µL amino acid complementation media for 100 mL of sporulation media (SPM)) and were kept shaking at 30 °C, 250 rpm during the entire meiotic time-course. For MMS and CPT (Sigma) sensitivity assays, serial dilutions of overnight cultures were spotted on freshly prepared YPD-MMS or YPD-CPT plates containing the indicated percentage of MMS or CPT, respectively. Plates were grown for two days at 30 °C. For immunofluorescence of vegetatively growing cells, overnight cultures were refreshed by diluting to OD600 0.2 and grown for 3-4 hours to reach OD600 1.2–1.4 before subjecting to MMS or MMS followed by 5% 1,6-hexanediol treatment. For 5% 1,6-hexanediol treatment, cells were first converted to spheroplasts and then treated with 5% 1,6-hexanediol for 4-5 min. Spheroplasts were then immediately washed, lysed, and fixed using the protocol described below.

[1] = tested on: MMS-induced Mre11^myc foci in vegetatively growing yeast; experiment: Immunofluorescence of MMS-induced Mre11myc foci, vegetative yeast nuclear spreads; type: cell-based, Saccharomyces cerevisiae; settings: MMS-treated, no hexanediol
Experimental: as §1
Meiotic cultures were harvested 4 h after transfer to SPM, washed with sterile cold water, and resuspended in 1 M sorbitol, 1 × PBS (pH 7), 10 mM DTT, 0.5 mg/ml zymolyase 20 T, and incubated for 30 mins at 30 °C with gentle shaking. […]
Slides were blocked with 90% FBS, 1 × PBS for 1 h at room temperature in a humid chamber and then incubated with primary antibody (mouse mAb anti-myc, 1:200 (2276S, Cell Signaling Technology), rabbit anti-phospho H2A-S129, 1:200 (ab15083, abcam)) diluted in 3% BSA, 1 × PBS in a humid chamber for 2 h at 37 °C or overnight at 4 °C. […] Images were captured on a Zeiss Axio Observer with a 100 ×/1.4 NA oil immersion objective and were analyzed in ImageJ.

Mre11 condensates = type: biochemical, Saccharomyces cerevisiae; settings: 500 mM NaCl, brief exposure
Experimental: Experiments were performed without PEG. b, d Effect of DNase I, in the absence of PEG, on (b) Mre11 (n = 9 (no treatment) and 11 (DNase I)) and (d) MRX (n = 9 (no treatment) and 11 (DNase I)) condensates. Condensates were pre-assembled for 20 min with 5.7 nM pUC19 prior to challenge. Quantification represents total foci intensity (green) in a field of view and total number of foci per 1000 µm^2 (magenta). Foci intensity is normalized to the mean intensity of samples with DNA for (a, c) and untreated samples for (b, d). Error bars represent mean ± SD from the indicated (n) fields of view. e, f Effect of the presence of 5% PEG-3350 on (e) Mre11 (n = 12) and (f) MRX (n = 11) condensate formation. Quantification represents total foci intensity (green) in a field of view (normalized to the mean of + PEG images) and total number of foci per 1000 µm^2 (magenta). Error bars represent mean ± SD from the indicated (n) fields of view. g–j Effect of challenge with 5% 1,6-hexanediol and 0.5 M NaCl on (g, h) Mre11 and (i, j) MRX condensates. […] In the control reaction, an equivalent volume (1/20) of water was added instead of hexanediol. […]
(§2) Proteins were diluted to a 10 × stock of their appropriate working concentrations in their respective storage buffers. […] Images were analyzed with ImageJ using a custom-made script. […] Data were analyzed using Graphpad Prism 10.4.0.

MRX condensates = type: biochemical, Saccharomyces cerevisiae; settings: 500 mM NaCl, brief exposure
Experimental: Experiments were performed without PEG. b, d Effect of DNase I, in the absence of PEG, on (b) Mre11 (n = 9 (no treatment) and 11 (DNase I)) and (d) MRX (n = 9 (no treatment) and 11 (DNase I)) condensates. Condensates were pre-assembled for 20 min with 5.7 nM pUC19 prior to challenge. Quantification represents total foci intensity (green) in a field of view and total number of foci per 1000 µm^2 (magenta). Foci intensity is normalized to the mean intensity of samples with DNA for (a, c) and untreated samples for (b, d). Error bars represent mean ± SD from the indicated (n) fields of view. e, f Effect of the presence of 5% PEG-3350 on (e) Mre11 (n = 12) and (f) MRX (n = 11) condensate formation. Quantification represents total foci intensity (green) in a field of view (normalized to the mean of + PEG images) and total number of foci per 1000 µm^2 (magenta). Error bars represent mean ± SD from the indicated (n) fields of view. g–j Effect of challenge with 5% 1,6-hexanediol and 0.5 M NaCl on (g, h) Mre11 and (i, j) MRX condensates. Condensates were assembled for 20 min prior to challenge and incubated for 15 min and 10 min, respectively, after challenge. […]
as §2

[2] = tested on: supercoiled pUC19 plasmid DNA; experiment: In vitro condensation assay of MRX complex (fluorescence microscopy); type: biochemical; settings: in the presence of plasmid DNA
Experimental: Fig. 1 Mre11 and the MRX complex assemble DNA-dependent condensates in vitro. a, c Effect of the presence of plasmid DNA on condensation of (a) Alexa488-labeled Mre11 (n = 11 and 9 fields of view for reactions without and with DNA, respectively) and (c) eGFP-tagged MRX (n = 11 (- DNA) and 9 ( + DNA)). Experiments were performed without PEG. b, d Effect of DNase I, in the absence of PEG, on (b) Mre11 (n = 9 (no treatment) and 11 (DNase I)) and (d) MRX (n = 9 (no treatment) and 11 (DNase I)) condensates. Condensates were pre-assembled for 20 min with 5.7 nM pUC19 prior to challenge. Quantification represents total foci intensity (green) in a field of view and total number of foci per 1000 µm^2 (magenta). Foci intensity is normalized to the mean intensity of samples with DNA for (a, c) and untreated samples for (b, d). […] Quantification represents total foci intensity (green) in a field of view (normalized to the mean of + PEG images) and total number of foci per 1000 µm^2 (magenta). […]
Fig. 2 The C-terminal IDR of Mre11 is required for condensation. a AlphaFold2 predicted model of Mre11 (AF-P32829-F1-v4). […] Quantification represents total fluorescence intensity (green) in a field of view and total number of foci per 1000 µm^2 (magenta). […]

Row | Compound | Sensitivity of mre11-ΔC49 mutant (in words) (Mre11^myc yeast strains) | Sensitivity of mre11-ΔIDR mutant (in words) (Mre11^myc yeast strains) | further results
1 | CC[C@@]1(O)C(=O)OCc2c1cc1n(c2=O)Cc2cc3ccccc3nc2-1 [CPT, camptothecin] | resistant | as resistant to MMS or CPT as wild-type cells | 
2 | COS(C)(=O)=O [MMS, methylmethanesulfonate] | resistant | as resistant to MMS or CPT as wild-type cells | Percentage of aggregates [1]: 0
3 | [Cl-].[Na+] [NaCl] |  |  | Effect on Mre11 foci intensity (in words) (Mre11 condensates): strongly reduced foci intensity; Effect on MRX foci intensity (in words) (MRX condensates): strongly reduced foci intensity
4 | MRX: Mre11-Rad50-Xrs2 complex, recombinant from Sf9 cells |  |  | Condensate formation (in words) [2]: form large clusters visible by fluorescence microscopy
